Data on 15 compounds can be found in ChEMBL document CHEMBL1127596, “Leukotriene B4 (LTB4) receptor antagonists: a series of (hydroxyphenyl)pyrazoles” (J Med Chem, 1994).

By IC50 is commonly meant the concentration that gives 50% inhibition. A higher IC50 goes with lower potency.

The target of this assay is Leukotriene B4 receptor 1 (Homo sapiens, UniProt Q15722). Description: Inhibition of [3H]Leukotriene B4 binding to human PMN.
Sequence of Leukotriene B4 receptor 1 (Q15722 whole entry): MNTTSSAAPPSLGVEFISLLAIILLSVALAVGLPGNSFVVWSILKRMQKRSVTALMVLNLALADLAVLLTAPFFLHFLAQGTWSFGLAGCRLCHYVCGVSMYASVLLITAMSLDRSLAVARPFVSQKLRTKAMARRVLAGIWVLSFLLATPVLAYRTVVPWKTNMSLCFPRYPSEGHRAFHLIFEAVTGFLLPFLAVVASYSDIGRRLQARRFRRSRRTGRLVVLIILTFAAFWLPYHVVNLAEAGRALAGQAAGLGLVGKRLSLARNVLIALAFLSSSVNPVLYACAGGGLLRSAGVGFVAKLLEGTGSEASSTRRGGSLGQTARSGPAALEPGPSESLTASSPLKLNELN
For `CCc1cc(-c2cc[nH]n2)c(O)cc1OCCCOc1ccccc1CC(=O)O`, the IC50 is 12 nM.

Turning to `CCc1cc(-c2cc[nH]n2)c(O)cc1OCCCOc1cccc(CC(=O)O)c1`, the IC50 is 11 nM.

`CCCc1c(OCCCOc2cc(O)c(-c3cc[nH]n3)cc2CC)ccc2c1OC(C(=O)O)CC2` (stereo not given) yielded an IC50 of 4.5 nM.

`CCc1cc(-c2ccnn2C)c(O)cc1OCCCCCC(C)(C)c1nnn[nH]1` returned an IC50 of 107 nM.

Turning to `CCc1cc(-c2cc[nH]n2)c(O)cc1OCCCOc1ccc(CCC(=O)O)cc1`, the IC50 came to 87 nM.

Compound `CCCc1c(CCC(=O)O)cccc1OCCCOc1cc(O)c(-c2cc[nH]n2)cc1CC` displayed a half-inhibitory concentration (IC50) of 834 nM.

`CCc1cc(-c2ccn(C)n2)c(O)cc1OCCCCCC(C)(C)c1nnn[nH]1` registered an IC50 of 9.3 nM.

`O=C(O)CCc1cccc(OCCCOc2ccc(-c3cc[nH]n3)cc2)c1` showed an IC50 above 1000 nM.

`CCc1cc(-c2cc[nH]n2)c(O)cc1OCCCCCOc1ccc(CC(=O)O)cc1` displayed a half-inhibitory concentration (IC50) of 55 nM. That is a double-digit nanomolar value.

In turn, `CCc1cc(-c2cc[nH]n2)c(O)cc1OCCCCCOc1ccc(C(=O)O)cc1` registered an IC50 of 82 nM.

Turning to `CCc1cc(-c2ccn[nH]2)c(O)cc1OCCCOc1ccc(CC(=O)O)cc1`, the IC50 is 54 nM.

Turning to `CCCc1ccc(CCC(=O)O)cc1OCCCOc1cc(O)c(-c2cc[nH]n2)cc1CC`, the IC50 was found to be 738 nM.

Compound `CCc1cc(-c2cc[nH]n2)c(O)cc1OCCCCCOc1ccc(CCC(=O)O)cc1` came in with a half-inhibitory concentration (IC50) of 28 nM.

`CCc1cc(-c2cc[nH]n2)c(O)cc1OCCCOc1cccc(CCC(=O)O)c1`: the half-maximal inhibitory concentration (IC50) worked out at 5.7 nM.

As for `CCCc1c(OCCCOc2cc(O)c(C(=O)/C=C/N(C)C)cc2CC)ccc2c1OC(C(=O)O)CC2` (stereo not given), the IC50 worked out at 319 nM.
